test system: HeLa; assay: SRB colorimetric cell growth inhibition assay, HeLa; format: cell-based; details: Homo sapiens, HeLa; GI=growth inhibition; read-out: GI50 HELA
Outline: (§1)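 Growth inhibition (GI), cytostatic total growth inhibition (TGI) and cytotoxic cell-kill (LC) parameters were calculated from SRB-stained cultures held under constant compound exposure, triplicates averaged.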

Row | SMILES | GI50 [µM]
1 | COc1cc2c(cc1O)CCn1c-2c(Br)c2c3cc(OC)c(O)cc3oc(=O)c21 [Compound 188] | 1.05

same assay, conditions: Homo sapiens, HeLa; cell killing (cytotoxic effect); read-out: LC50 HELA

Row | SMILES | CC50 [µM]
2 | COc1cc2c(cc1O)CCn1c-2c(Br)c2c3cc(OC)c(O)cc3oc(=O)c21 [Compound 188] | 21.8

same assay, conditions: Homo sapiens, HeLa; total growth inhibition (cytostatic effect); read-out: TGI HELA

Row | SMILES | IC (TGI) [µM]
3 | COc1cc2c(cc1O)CCn1c-2c(Br)c2c3cc(OC)c(O)cc3oc(=O)c21 [Compound 188] | 3.69

test system: IGROV-ET; assay: SRB colorimetric cell growth inhibition assay, IGROV-ET (ET-743 resistant); format: cell-based; details: Homo sapiens, IGROV-ET; GI=growth inhibition; read-out: GI50 IGROV-ET
Outline: as §1

Row | SMILES | GI50 [µM]
4 | COc1cc2c(cc1O)CCn1c-2c(Br)c2c3cc(OC)c(O)cc3oc(=O)c21 [Compound 188] | 2.51

same assay, conditions: Homo sapiens, IGROV-ET; cell killing (cytotoxic effect); read-out: LC50 IGROV-ET

Row | SMILES | CC50 [µM]
5 | COc1cc2c(cc1O)CCn1c-2c(Br)c2c3cc(OC)c(O)cc3oc(=O)c21 [Compound 188] | 21.8

same assay, conditions: Homo sapiens, IGROV-ET; total growth inhibition (cytostatic effect); read-out: TGI IGROV-ET

Row | SMILES | IC (TGI) [µM]
6 | COc1cc2c(cc1O)CCn1c-2c(Br)c2c3cc(OC)c(O)cc3oc(=O)c21 [Compound 188] | 13.4

test system: LoVo; assay: SRB colorimetric cell growth inhibition assay, LoVo; format: cell-based; details: Homo sapiens, LoVo; GI=growth inhibition; read-out: GI50 LOVO
Outline: as §1

Row | SMILES | GI50 [µM]
7 | COc1cc2c(cc1O)CCn1c-2c(Br)c2c3cc(OC)c(O)cc3oc(=O)c21 [Compound 188] | 4.5

same assay, conditions: Homo sapiens, LoVo; cell killing (cytotoxic effect); read-out: LC50 LOVO

Row | SMILES | CC50 [µM]
8 | COc1cc2c(cc1O)CCn1c-2c(Br)c2c3cc(OC)c(O)cc3oc(=O)c21 [Compound 188] | 21.8

same assay, conditions: Homo sapiens, LoVo; total growth inhibition (cytostatic effect); read-out: TGI LOVO

Row | SMILES | IC (TGI) [µM]
9 | COc1cc2c(cc1O)CCn1c-2c(Br)c2c3cc(OC)c(O)cc3oc(=O)c21 [Compound 188] | 21.8

test system: SK-MEL-28; assay: SRB colorimetric cell growth inhibition assay, SK-MEL-28; format: cell-based; details: Homo sapiens, SK-MEL-28, MEL-28; GI=growth inhibition; read-out: GI50 MEL-28
Outline: as §1

Row | SMILES | GI50 [µM]
10 | COc1cc2c(cc1O)CCn1c-2c(Br)c2c3cc(OC)c(O)cc3oc(=O)c21 [Compound 188] | 1.14

same assay, conditions: Homo sapiens, SK-MEL-28, MEL-28; cell killing (cytotoxic effect); read-out: LC50 MEL-28

Row | SMILES | CC50 [µM]
11 | COc1cc2c(cc1O)CCn1c-2c(Br)c2c3cc(OC)c(O)cc3oc(=O)c21 [Compound 188] | 21.8

same assay, conditions: Homo sapiens, SK-MEL-28, MEL-28; total growth inhibition (cytostatic effect); read-out: TGI MEL-28

Row | SMILES | IC (TGI) [µM]
12 | COc1cc2c(cc1O)CCn1c-2c(Br)c2c3cc(OC)c(O)cc3oc(=O)c21 [Compound 188] | 21.8

test system: HT-29; assay: SRB colorimetric cell growth inhibition assay, HT-29; format: cell-based; details: Homo sapiens, HT-29, HT-29; GI=growth inhibition; read-out: GI50 HT-29
Outline: as §1

Row | SMILES | GI50 [µM]
13 | COc1cc2c(cc1O)CCn1c-2c(Br)c2c3cc(OC)c(O)cc3oc(=O)c21 [Compound 188] | 21.8

same assay, conditions: Homo sapiens, HT-29, HT-29; cell killing (cytotoxic effect); read-out: LC50 HT-29

Row | SMILES | CC50 [µM]
14 | COc1cc2c(cc1O)CCn1c-2c(Br)c2c3cc(OC)c(O)cc3oc(=O)c21 [Compound 188] | 21.8

same assay, conditions: Homo sapiens, HT-29, HT-29; total growth inhibition (cytostatic effect); read-out: TGI HT-29

Row | SMILES | IC (TGI) [µM]
15 | COc1cc2c(cc1O)CCn1c-2c(Br)c2c3cc(OC)c(O)cc3oc(=O)c21 [Compound 188] | 21.8

test system: DU-145; assay: SRB colorimetric cell growth inhibition assay, DU-145; format: cell-based; details: Homo sapiens, DU-145, DU-145; GI=growth inhibition; read-out: GI50 DU-145
Outline: as §1

Row | SMILES | GI50 [µM]
16 | COc1cc2c(cc1O)CCn1c-2c(Br)c2c3cc(OC)c(O)cc3oc(=O)c21 [Compound 188] | 3.19

same assay, conditions: Homo sapiens, DU-145, DU-145; cell killing (cytotoxic effect); read-out: LC50 DU-145

Row | SMILES | CC50 [µM]
17 | COc1cc2c(cc1O)CCn1c-2c(Br)c2c3cc(OC)c(O)cc3oc(=O)c21 [Compound 188] | 21.8

same assay, conditions: Homo sapiens, DU-145, DU-145; total growth inhibition (cytostatic effect); read-out: TGI DU-145

Row | SMILES | IC (TGI) [µM]
18 | COc1cc2c(cc1O)CCn1c-2c(Br)c2c3cc(OC)c(O)cc3oc(=O)c21 [Compound 188] | 21.8

test system: A-549; assay: SRB colorimetric cell growth inhibition assay, A-549; format: cell-based; details: Homo sapiens, A549, A-549; GI=growth inhibition; read-out: GI50 A-549
Outline: as §1

Row | SMILES | GI50 [µM]
19 | COc1cc2c(cc1O)CCn1c-2c(Br)c2c3cc(OC)c(O)cc3oc(=O)c21 [Compound 188] | 10.8

same assay, conditions: Homo sapiens, A549, A-549; cell killing (cytotoxic effect); read-out: LC50 A-549

Row | SMILES | CC50 [µM]
20 | COc1cc2c(cc1O)CCn1c-2c(Br)c2c3cc(OC)c(O)cc3oc(=O)c21 [Compound 188] | 21.8

same assay, conditions: Homo sapiens, A549, A-549; total growth inhibition (cytostatic effect); read-out: TGI A-549

Row | SMILES | IC (TGI) [µM]
21 | COc1cc2c(cc1O)CCn1c-2c(Br)c2c3cc(OC)c(O)cc3oc(=O)c21 [Compound 188] | 21.8
